Laboratory results reported in ChEMBL document CHEMBL1136657, “Novel ether derivatives of mannopeptimycin glycopeptide antibiotic” (2003).
≈ marks a conversion by molar mass, not a printed value.

Tests used:
Format in all cases: functional
[1] = test system: Streptococcus; assay: Minimum inhibitory concentration against Streptococcus species. was determined
[2] = test system: Enterococcus sp.; assay: Minimum inhibitory concentration against Enterococcus species. was determined
[3] = test system: Staphylococcus aureus; assay: Minimum inhibitory concentration against Staphylococcus aureus was determined
[4] = test system: Staphylococcus aureus; assay: Minimum inhibitory concentration against Staphylococcus aureus (MRSA) was determined; Range is 32-64 ug/mL
[5] = test system: Staphylococcus aureus; assay: Minimum inhibitory concentration against Staphylococcus aureus (MRCNS) was determined
[6] = test system: Enterococcus faecalis; assay: Minimum inhibitory concentration against Enterococcus faecalis was determined; Range is […] ug/mL
[7] = test system: Staphylococcus aureus; assay: Minimum inhibitory concentration against Staphylococcus aureus (MSSA) was determined; Range is 32-64 ug/mL
[8] = test system: Streptococcus; assay: Minimum inhibitory concentration against Streptococcus was determined; […]
[9] = Minimum inhibitory concentration against Gram(-) sp. was determined; Range is […] ug/mL
[10] = test system: Candida albicans; assay: Minimum inhibitory concentration against Candida albicans was determined
[11] = test system: Staphylococcus aureus; assay: Minimum inhibitory concentration against Staphylococcus aureus (MSCNS) was determined
[12] = test system: Enterococcus faecium; assay: Minimum inhibitory concentration against Enterococcus faecium was determined; Range is […] ug/mL
[13] = test system: Enterococcus faecalis; assay: Minimum inhibitory concentration against Enterococcus faecalis was determined; Range is 8-16 ug/mL
[14] = Minimum inhibitory concentration against Gram(-) sp. was determined
[15] = test system: Enterococcus faecium; assay: Minimum inhibitory concentration against Enterococcus faecium was determined; Range is 8-16 ug/mL
[16] = test system: Streptococcus; assay: Minimum inhibitory concentration against Streptococcus was determined; Range is <=0.12-2 ug/mL
[17] = test system: Staphylococcus aureus; assay: Minimum inhibitory concentration against Staphylococcus aureus (MSCNS) was determined; Range is 1-8 ug/mL
[18] = test system: Staphylococcus aureus; assay: Minimum inhibitory concentration against Staphylococcus aureus (MSSA) was determined; Range is 4-8 ug/mL
[19] = test system: Staphylococcus aureus; assay: Minimum inhibitory concentration against Staphylococcus aureus (MRSA) was determined; Range is 4-8 ug/mL

MIC [1]	MIC [2]	MIC [3]	MIC [4]	MIC [5]	MIC [6]	MIC [7]	MIC [8]	MIC [9]	MIC [10]	MIC [11]	MIC [12]	MIC [13]	MIC [14]	MIC [15]	MIC [16]	MIC [17]	MIC [18]	MIC [19]	SMILES
2 µg/mL (≈ 1.46 µM)	4 µg/mL (≈ 2.93 µM)	4 µg/mL (≈ 2.93 µM)																	CC(C)CC(=O)O[C@H]1[C@H](O)[C@H](O)[C@@H](O[C@H]2[C@H](O)[C@H](O)[C@@H](Oc3ccc(C[C@H]4NC(=O)[C@H]([C@@H](C)c5ccccc5)NC(=O)CNC(=O)[C@H](CO)NC(=O)[C@@H]([C@@H](O)[C@@H]5CN=C(N)N5[C@H]5O[C@H](O)[C@@H](O)[C@H](O)[C@@H]5O)NC(=O)[C@H]([C@@H](O)[C@@H]5CN=C(N)N5)NC4=O)cc3)O[C@@H]2CO)O[C@@H]1CO
			32 µg/mL (≈ 21.7 µM)	32 µg/mL (≈ 21.7 µM)	64 µg/mL (≈ 43.3 µM)	32 µg/mL (≈ 21.7 µM)	2 µg/mL (≈ 1.35 µM)	> 128 µg/mL	128 µg/mL (≈ 86.6 µM)	16 µg/mL (≈ 10.8 µM)	16 µg/mL (≈ 10.8 µM)								C[C@@H](c1ccccc1)[C@@H]1NC(=O)CNC(=O)[C@H](CO)NC(=O)[C@@H]([C@@H](O)[C@@H]2CN=C(N)N2[C@H]2O[C@H](O)[C@@H](O)[C@H](O)[C@@H]2O)NC(=O)[C@H]([C@@H](O)[C@@H]2CN=C(N)N2)NC(=O)[C@@H](Cc2ccc(O[C@H]3O[C@H](CO)[C@@H](O[C@H]4O[C@H](CO)[C@@H](O)[C@H](O)[C@@H]4OCc4ccc(OCc5ccccc5)cc4)[C@H](O)[C@@H]3O)cc2)NC1=O
				4 µg/mL (≈ 2.71 µM)					> 128 µg/mL			8 µg/mL (≈ 5.41 µM)	> 128 µg/mL	8 µg/mL (≈ 5.41 µM)	≤ 0.12 µg/mL	1 µg/mL (≈ 0.677 µM)	4 µg/mL (≈ 2.71 µM)	4 µg/mL (≈ 2.71 µM)	C[C@@H](c1ccccc1)[C@@H]1NC(=O)CNC(=O)[C@H](CO)NC(=O)[C@@H]([C@@H](O)[C@@H]2CN=C(N)N2[C@H]2O[C@H](O)[C@@H](O)[C@H](O)[C@@H]2O)NC(=O)[C@H]([C@@H](O)[C@@H]2CN=C(N)N2)NC(=O)[C@@H](Cc2ccc(O[C@H]3O[C@H](CO)[C@@H](O[C@H]4O[C@H](CO)[C@@H](O)[C@H](OCc5ccc(OCc6ccccc6)cc5)[C@@H]4O)[C@H](O)[C@@H]3O)cc2)NC1=O
